The source of these data is patent US9802928B2 (Merck Sharp & Dohme Corp., priority 2013, dated 2017).

By Ki is commonly meant the dissociation constant of the complex between target and ligand, obtained from inhibition or displacement.

SMILES strings stand for the structures.

The target in assay [1] is soluble human BACE1 catalytic domain (Homo sapiens (Human), UniProt P56817). In words: BACE1 HTRF FRET Assay. The class given is biochemical. The conditions noted are these: Ki calculated from IC50 using the Cheng-Prusoff equation; QSY7-APPswe-Eu substrate, pH 5.0. The text has this: Na^+-Acetate pH 5.0; 1% Brij-35; Glycerol; Dimethyl Sulfoxide (DMSO); Recombinant human soluble BACE1 catalytic domain (>95% pure); APP Swedish mutant peptide substrate (QSY7-APP^swe-Eu): QSY7-[…]-Europium-amide.
Sequence of soluble human BACE1 catalytic domain (P56817 75-416): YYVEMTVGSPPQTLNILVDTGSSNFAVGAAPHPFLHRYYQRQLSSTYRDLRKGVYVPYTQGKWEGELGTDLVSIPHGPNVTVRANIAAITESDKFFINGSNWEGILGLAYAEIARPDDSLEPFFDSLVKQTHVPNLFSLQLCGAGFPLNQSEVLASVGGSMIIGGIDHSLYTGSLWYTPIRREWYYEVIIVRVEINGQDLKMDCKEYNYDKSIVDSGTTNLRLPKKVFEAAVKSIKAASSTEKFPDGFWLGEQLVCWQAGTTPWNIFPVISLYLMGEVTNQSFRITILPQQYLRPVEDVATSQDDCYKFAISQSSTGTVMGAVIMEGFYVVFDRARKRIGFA
A homogeneous time-resolved FRET assay can be used to determine IC50 values for inhibitors of the soluble human BACE1 catalytic domain. This assay monitors the increase of 620 nm fluorescence that resulted from BACE1 cleavage of an APPswedish APP^swe mutant peptide FRET substrate (QSY7-[…]-Europium-amide). This substrate contains an N-terminal QSY7 moiety that serves as a quencher of the C-terminal Europium fluorophore (620 nm Em). In the absence of enzyme activity, 620 nm fluorescence is low in the assay and increased linearly over 3 hours in the presence of uninhibited BACE1 enzyme Inhibition of BACE1 cleavage of the QSY7-APP^swe-Eu substrate by inhibitors is manifested as a suppression of 620 nm fluorescence.
Varying concentrations of inhibitors at 3× the final desired concentration in a volume of 10 ul are preincubated with purified human BACE1 catalytic domain (3 nM in 10 μl) for 30 minutes at 30° C. in reaction buffer containing 20 mM Na-Acetate pH 5.0, 10% glycerol, 0.1% Brij-35 and 7.5% DSMO. Reactions are initiated by addition of 10 μl of 600 nM QSY7-APP^swe-Eu substrate (200 nM final) to give a final reaction volume of 30 μl in a 384 well Nunc HTRF plate. The reactions are incubated at 30° C. for 1.5 hours. The 620 nm fluorescence is then read on a Rubystar HTRF plate reader (BMG Labtechnologies) using a 50 millisecond delay followed by a 400 millisecond acquisition time window. Inhibitor IC50 values are derived from non-linear regression analysis of concentration response curves. Ki values are then calculated from IC50 values using the Cheng-Prusoff equation using a previously determined […] of 8 μM for the QSY7-APP^swe-Eu substrate at BACE1.

The target of assay [2] is purified human autoBACE-2 (Homo sapiens (Human), UniProt Q9Y5Z0). In words: BACE-2 Assay (BACE-HTRF assay). The class given is biochemical. The conditions noted are these: Ki calculated from IC50 using the Cheng-Prusoff equation; QSY7-EISEVNLDAEFC-Eu-amide substrate, pH 5.0; read-out: BACE2 Ki. The procedure: Inhibitor IC50s at purified human autoBACE-2 are determined in a time-resolved endpoint proteolysis assay that measures hydrolysis of the QSY7-EISEVNLDAEFC-Eu-amide FRET peptide substrate (BACE-HTRF assay). BACE-mediated hydrolysis of this peptide results in an increase in relative fluorescence (RFU) at 620 nm after excitation with 320 nm light. Inhibitor compounds, prepared at 3× the desired final concentration in 1×BACE assay buffer (20 mM sodium acetate pH 5.0, 10% glycerol, 0.1% Brij-35) supplemented with 7.5% DMSO are pre-incubated with an equal volume of autoBACE-2 enzyme diluted in 1×BACE assay buffer (final enzyme concentration 1 nM) in black 384-well NUNC plates for 30 minutes at 30° C. The assay is initiated by addition of an equal volume of the QSY7-EISEVNLDAEFC-Eu-amide substrate (200 nM final concentration, Km=8 μM […] for autoBACE-2) prepared in 1×BACE assay buffer supplemented with 7.5% DMSO and incubated for 90 minutes at 30° C. DMSO is present at 5% final concentration in the assay. Following laser excitation of sample wells at 320 nm, the fluorescence signal at 620 nm is collected for 400 ms following a 50 μs delay on a RUBYstar HTRF plate reader (BMG Labtechnologies). Raw RFU data is normalized to maximum (1.0 nM BACE/DMSO) and minimum (no enzyme/DMSO) RFU values. IC50s are determined by nonlinear regression analysis (sigmoidal dose response, variable slope) of percent inhibition data with minimum and maximum values set to 0 and 100 percent respectively. Similar IC50s are obtained when using raw RFU data. The Ki values are calculated from the IC50 using the Cheng-Prusoff equation.
Sequence of purified human autoBACE-2 (Q9Y5Z0 63-473 limits assumed): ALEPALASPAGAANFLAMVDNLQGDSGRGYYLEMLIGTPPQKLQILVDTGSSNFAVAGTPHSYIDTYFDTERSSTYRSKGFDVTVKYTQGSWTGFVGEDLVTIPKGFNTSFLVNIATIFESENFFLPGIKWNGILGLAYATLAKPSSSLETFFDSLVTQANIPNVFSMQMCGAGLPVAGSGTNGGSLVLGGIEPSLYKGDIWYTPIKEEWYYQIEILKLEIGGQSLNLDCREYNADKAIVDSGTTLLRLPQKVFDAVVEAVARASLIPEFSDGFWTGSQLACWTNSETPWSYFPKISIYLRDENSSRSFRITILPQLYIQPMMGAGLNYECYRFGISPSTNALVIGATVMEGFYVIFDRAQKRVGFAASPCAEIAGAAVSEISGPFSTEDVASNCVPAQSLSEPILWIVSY

Take `CN1C(=N)N[C@](C)(c2cc(NC(=O)c3cnc(OCCF)cn3)ccc2F)C2(CC2)S1(=O)=O` [Example 1t, 5-(2-fluoroethoxy)-N-{4-fluoro-3-[(8R)-6-imino-5,8-dimethyl-4,4-dioxido-4-thia-5,7-diazaspiro[2.5]oct-8-yl]phenyl}pyrazine-2-carboxamide]: the values for the Ki in assay [1] and in assay [2] were 42 nM and 285 nM, respectively.

Consider `Cc1nc(C(=O)Nc2ccc(F)c([C@@]3(C)NC(=N)N(C)S(=O)(=O)C34CC4)c2)c(C)o1` [Example 1u, N-{4-fluoro-3-[(8R)-6-imino-5,8-dimethyl-4,4-dioxido-4-thia-5,7-diazaspiro[2.5]oct-8-yl]phenyl}-2,5-dimethyl-1,3-oxazole-4-carboxamide], for which the Ki in assay [1] was 25 nM; in assay [2], 8 nM.

Consider `CN1C(=N)N[C@](C)(c2cc(NC(=O)c3cn4ccsc4n3)ccc2F)C2(CC2)S1(=O)=O` [Example 1v, N-{4-fluoro-3-[(8R)-6-imino-5,8-dimethyl-4,4-dioxido-4-thia-5,7-diazaspiro[2.5]oct-8-yl]phenyl}imidazo[2,1-b][1,3]thiazole-6-carboxamide], for which the Ki in assay [1] was 232 nM; in assay [2] it was 63 nM.

As to `CN1C(=N)N[C@](C)(c2cc(NC(=O)c3cnc(OCC(F)(F)F)cn3)ccc2F)C2(CC2)S1(=O)=O` [Example 1w, N-{4-fluoro-3-[(8R)-6-imino-5,8-dimethyl-4,4-dioxido-4-thia-5,7-diazaspiro[2.5]oct-8-yl]phenyl}-5-(2,2,2-trifluoroethoxy)pyrazine-2-carboxamide], the results for the Ki in assay [1] and in assay [2] were 6 nM and 159 nM, respectively.

Consider `CN1C(=N)N[C@](C)(c2cc(NC(=O)c3ccc(Cl)cn3)ccc2F)C2(CC2)S1(=O)=O` [Example 2, 5-chloro-N-{4-fluoro-3-[(8R)-6-imino-5,8-dimethyl-4,4-dioxido-4-thia-5,7-diazaspiro[2.5]oct-8-yl]phenyl}pyridine-2-carboxamide], for which the inhibition constant (Ki) in assay [1] was 5 nM; in assay [2], 2 nM.
